Experimental data reported in US5708015A, “Method for using pharmaceutical compositions containing 2-(2-alkyphenyl-amino)-thiazolines as adrenergic agents” (Allergan, priority 1996, dated 1998).
Read-outs that look alike come from different tables or passages of the source.

Experiments:
[1] = target: α1 adrenergic receptor (human cerebral cortex membranes); test: Alpha1 (human brain) receptor binding assay; conditions: 22° C., 30 minutes, [3H] radioligand
Source text: (§1) The present compound or compounds may be included in a medication composition together with one or more other components to provide a medication composition which can be effectively administered. Such other components, e.g., carriers, anti-oxidants, bulking agents and the like, may be chosen from those materials which are conventional and well known in the art, e.g., as being included in medication compositions with α2 agonists. Whereas the effective dose of the compounds of the present compositions will depend on the nature of the host mammal and the specific diesease or condition treated it is anticipated that an effective daily dose of the compounds is in the range of 1 microgramm--10 mg per kg/body weight of the host. The ability of the compounds within the present invention to bind strongly and selectively to α2 adrenergic receptors in preference over α1 adrenergic receptors was confirmed by the following assay procedures which are generally recognized in the art to provide pertinent information with respect to the adrenergic activity of the compounds assayed: alpha1 (human brain) assay, alpha2 A (HT-29 cells) assay, and alpha2 B (rat kidney) assay. A description of these assay procedures is as follows.
Membrane preparation: Membrane suspensions were prepared from human cerebral cortex (HCC), HT-29 cells (HT) and rat kidney cortex (RtKC), as applicable. Tissues were homogenized in iced-cold buffer [250 mM sucrose, 5 mM tris, pH 7.4 (RtKC), or 50 mM Tris-HCl, 5 mM EDTA, pH 7.4 (HCC, HT)] with a Polytron homogenizer for 30 secs at setting #7, and centrifuged for 10 minutes at 300×g at 4° C. The supernatant was diluted 1:2 with 50 mM Tris-HCl buffer, pH 7.4 (RkCC, HCC) or pH 8.0 (HT) then centrifuged at 49,000×g for 15-20 minutes. The pellet fraction was washed 3 times (resuspended in Tris-HCl buffer and centrifuged for 15-20 minutes at 49,000×g). The pellet was then stored at -80° C. until the binding assay. Binding studies: The radioligands [^3 H] rauwolscine (specific activity 80 Ci/mmol) and [^3 H] prazosin (specific activity 77 Ci/mmol) were obtained from New England Nuclear, Boston, Mass. Frozen membrane pellet was resuspended in glycine glycine buffer, pH 7.6. […] The filters were then oven dried and transferred to scintillation vials containing 5 mls of Beckman's Ready Protein^R scintillation cocktail for counting. […] Protein concentrations were determined with a protein assay kit from Bio Rad. Binding isotherms, equilibrium dissociation and affinity constants were analyzed and determined by the non-linear least squares curve fitting program AccuFit Competition/Saturation by Beckman. […]

[2] = target: T1, α2 A adrenergic receptor (HT-29 cells) (Homo sapiens, UniProt P08913); test: Alpha2 A (HT-29 cells) receptor binding assay
T1 construct: Membrane suspensions were prepared from human cerebral cortex (HCC), HT-29 cells (HT) and rat kidney cortex (RtKC); endogenous in cells; host or cells: HT-29 cells
Source text: as §1
(§2) Membrane preparation: Membrane suspensions were prepared from human cerebral cortex (HCC), HT-29 cells (HT) and rat kidney cortex (RtKC), as applicable. Tissues were homogenized in iced-cold buffer [250 mM sucrose, 5 mM tris, pH 7.4 (RtKC), or 50 mM Tris-HCl, 5 mM EDTA, pH 7.4 (HCC, HT)] with a Polytron homogenizer for 30 secs at setting #7, and centrifuged for 10 minutes at 300×g at 4° C. The supernatant was diluted 1:2 with 50 mM Tris-HCl buffer, pH 7.4 (RkCC, HCC) or pH 8.0 (HT) then centrifuged at 49,000×g for 15-20 minutes. The pellet fraction was washed 3 times (resuspended in Tris-HCl buffer and centrifuged for 15-20 minutes at 49,000×g). The pellet was then stored at -80° C. until the binding assay. Binding studies: The radioligands [^3 H] rauwolscine (specific activity 80 Ci/mmol) and [^3 H] prazosin (specific activity 77 Ci/mmol) were obtained from New England Nuclear, Boston, Mass. Frozen membrane pellet was resuspended in glycine glycine buffer, pH 7.6. Membrane protein homogenate (150-300 μg) was incubated with radioligand under the following conditions: 22° C., 30 minutes (HCC, HT), 0° C., 120 minutes (RtKC), in a final volume of 500 μl. At the end of the incubation period, the samples were filtered through glass fiber filters (Whatman GF/B) in a 96-well cell harvester and rapidly washed four times with 4 mls of iced-cold 50 mM Tris-HCl buffer. The filters were then oven dried and transferred to scintillation vials containing 5 mls of Beckman's Ready Protein^R scintillation cocktail for counting. Non-specific binding was defined by 10 μM phentolamine. Protein concentrations were determined with a protein assay kit from Bio Rad. Binding isotherms, equilibrium dissociation and affinity constants were analyzed and determined by the non-linear least squares curve fitting program AccuFit Competition/Saturation by Beckman.
(§3) As it will be recognized by those skilled in the art from the forogoing descriptions, the described assays are radioligand assays which measure the binding of the test compound to the respective α1 or α2 receptor. […]

[3] = target: T2, α2 B adrenergic receptor (rat kidney cortex membranes) (Rattus norvegicus, UniProt P19328); test: Alpha2 B (rat kidney) receptor binding assay
T2 construct: Membrane suspensions were prepared from human cerebral cortex (HCC), HT-29 cells (HT) and rat kidney cortex (RtKC); from tissue; host or cells: rat kidney cortex membranes
T2 sequence (P19328 1-453): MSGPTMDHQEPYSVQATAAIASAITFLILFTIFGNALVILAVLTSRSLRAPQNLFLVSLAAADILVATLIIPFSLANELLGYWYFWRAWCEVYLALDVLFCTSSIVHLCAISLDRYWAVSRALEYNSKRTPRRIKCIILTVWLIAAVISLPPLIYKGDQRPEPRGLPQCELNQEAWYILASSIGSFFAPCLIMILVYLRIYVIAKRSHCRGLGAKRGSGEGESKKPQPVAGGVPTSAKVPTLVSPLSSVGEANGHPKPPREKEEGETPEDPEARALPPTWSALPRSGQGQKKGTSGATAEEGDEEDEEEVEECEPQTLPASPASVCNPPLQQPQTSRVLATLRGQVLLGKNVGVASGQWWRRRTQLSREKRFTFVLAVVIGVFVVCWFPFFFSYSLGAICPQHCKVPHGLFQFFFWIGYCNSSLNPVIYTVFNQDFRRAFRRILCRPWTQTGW
Source text: as §1, §2, §3

T1 sequence (P08913 whole entry): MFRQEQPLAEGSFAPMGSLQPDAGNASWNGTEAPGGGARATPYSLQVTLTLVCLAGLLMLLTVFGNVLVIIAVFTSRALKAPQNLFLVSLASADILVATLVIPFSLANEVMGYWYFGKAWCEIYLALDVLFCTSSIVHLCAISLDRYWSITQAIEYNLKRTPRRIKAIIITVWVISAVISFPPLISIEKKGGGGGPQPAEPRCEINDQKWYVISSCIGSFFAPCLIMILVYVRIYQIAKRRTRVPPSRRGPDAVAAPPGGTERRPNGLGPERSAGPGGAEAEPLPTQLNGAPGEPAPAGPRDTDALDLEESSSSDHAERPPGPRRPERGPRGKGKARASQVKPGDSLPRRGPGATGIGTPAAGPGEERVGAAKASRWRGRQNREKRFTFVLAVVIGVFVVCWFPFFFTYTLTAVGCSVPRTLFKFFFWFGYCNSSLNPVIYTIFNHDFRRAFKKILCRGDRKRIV

SMILES | Ki [1] [nM] | Ki [2] [nM] | Ki ([3]; rat kidney cortex membranes, 0° C., 120 minutes, [3H] radioligand, read-out: α2 B Ki) [nM] | Ki [3] [nM]
Cc1ccccc1NC1=NCCO1 [Compound 1a] | 7400 | 35.7 | 208 | 
Cc1cccc(N=C2NCCN2)c1C [Compound 3, 2-(2,3-Dimethylphenylimino)-imidazolidine] | 434 | 5.8 |  | 1.5
Cc1ccccc1N=C1NCCN1 [Compound 3a, 2-(2-methylphenylimino)-imidazolidine] | 2170 | 7.5 |  | 25.3
c1cc2c(c(NC3=NCCO3)c1)CCCC2 [Compound 2, 2-(5,6,7,8-tetrahydronaphthylamino)-oxazoline] |  | 2.2 |  | 6.2
Cc1cccc(NC2=NCCO2)c1C [Compound 1, 2-[2,3-Dimethylphenylamino)-oxazoline] | 1210 | 5.1 |  | 8.5
